PMC5095920 (Biochemical Journal, 2016)

Molecular target: T1, HemQ (Staphylococcus aureus, UniProt Q2YS77)
T1 sequence (Q2YS77 1-250): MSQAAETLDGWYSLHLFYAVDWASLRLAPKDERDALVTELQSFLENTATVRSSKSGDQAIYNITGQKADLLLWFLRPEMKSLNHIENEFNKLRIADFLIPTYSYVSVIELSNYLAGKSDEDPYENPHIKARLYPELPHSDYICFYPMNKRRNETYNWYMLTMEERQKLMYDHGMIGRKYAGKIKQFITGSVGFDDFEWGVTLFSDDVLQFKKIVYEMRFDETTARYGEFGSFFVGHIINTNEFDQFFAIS
Test: co-purification on affinity column, absorption spectroscopy
Assay type: binding
Details: porphyrin added before affinity chromatography, pH 8.0

| SMILES | co-purification on affinity column, absorption spectroscopy |
| --- | --- |
| CC1=C(CCC(=O)O)c2cc3nc(cc4[nH]c(cc5[nH]c(cc1n2)c(C)c5CCC(=O)O)c(CCC(=O)O)c4C)C(CCC(=O)O)=C3C [coproporphyrin III] | HemQ that was loaded with bound haem, protoporphyrin IX, and coproporphyrin III |
| C=CC1=C(C)c2cc3[nH]c(cc4nc(cc5[nH]c(cc1n2)c(C)c5CCC(=O)O)C(CCC(=O)O)=C4C)c(C)c3C=C [protoporphyrin IX] | HemQ that was loaded with bound haem, protoporphyrin IX, and coproporphyrin III |
